Consider 35 compounds from patent US11993574B2, “Pyrazole and imidazole compounds for inhibition of IL-17 and RORgamma” (REATA PHARMACEUTICALS, INC., priority 2018, dated 2024).

Holding throughout (type): cell-based
In assay [1] the test system is IL-17A. Description: IL-17 release from differentiated primary human T-cells (IL-17A HTRF assay). The conditions noted are these: primary human CD4+ T cells differentiated into Th17 cells, 45-hour incubation, IL-17A in supernatant; read-out: hIL17 IC50. The procedure, abridged: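 Primary human CD4+ T cells (~2×10^5/well) given compound (2–500 or 4–1000 nM, 0.1% DMSO), CD3/CD28-activated and Th17-differentiated (TGF-β, IL-6, IL-23, IL-1β) for 45 h at 37° C. Supernatant IL-17A by HTRF against standard curve, normalized to vehicle; IC50 by variable-slope regression, with parallel CyQuant viability.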

Assay [2] concerns the target T1, Human RAR-related Orphan Receptor Gamma (RORγ) (Homo sapiens, UniProt P51449).
T1 sequence (P51449 269-508 limits assumed): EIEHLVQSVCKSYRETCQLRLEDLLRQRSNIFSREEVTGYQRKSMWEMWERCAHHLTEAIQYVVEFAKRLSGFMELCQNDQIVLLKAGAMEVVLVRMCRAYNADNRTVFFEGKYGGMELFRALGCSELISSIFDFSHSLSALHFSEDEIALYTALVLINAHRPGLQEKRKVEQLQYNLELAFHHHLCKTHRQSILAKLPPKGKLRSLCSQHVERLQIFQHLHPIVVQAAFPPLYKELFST
Description: RORγ assay (GAL4-RORγ hybrid luciferase reporter, Indigo Biosciences). Conditions: inverse-agonist activity, GAL4-RORγ reporter cells, 23 hours. The procedure, abridged: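 […]engineered human reporter cell line expressing GAL4-DBD/RORγ-LBD hybrid with GAL4-UAS luciferase; constitutive activity measured as inverse agonism. Cells treated with compound (7.8-2000 nM) for 23 h at 37 °C; luminescence normalized to DMSO, IC50 by variable-slope fit, with parallel viability readout to flag non-specific inhibition.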

Assay [3] has as its system Nrf2 transcription factor. Description: AREc32 luciferase reporter assay. The conditions noted are these: Homo sapiens; AREc32 cells, 19 hours; concentration required to increase GST ARE luciferase reporter activity by 2-fold; read-out: NRF2 ARE 2-Fold (EC2×). The procedure, abridged: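 AREc32 cells (MCF-7 with firefly luciferase under eight rat GSTA2 ARE copies) treated 19 h with compound (0.4-200 nM or 3.9-2000 nM) in triplicate. Luminescence normalized to DMSO as fold-induction, capped at 50-fold. EC2× = concentration giving 2-fold reporter increase, interpolated from variable-slope fit.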
A general note: In a reporter assay the amount or activity of a reporter protein is the signal.

With `C[C@H]1C(=O)C(C#N)=C[C@@]2(C)c3c(c(-c4ccccc4)nn3-c3ccc(-c4ccc(N(C)C)cc4)cc3)CC[C@H]12` [T47], the values for the IC50 in assay [1] and in assay [2] were 26 nM and 68 nM, respectively. Moreover, the EC (2-fold) in assay [3] worked out at 0.253 µM.
On the same counts, the results for `C[C@H]1C(=O)C(C#N)=C[C@@]2(C)c3nn(-c4ccc(-c5ccccc5)cc4)c(CC4CCC4)c3CC[C@H]12` [T119] are 43 nM, 158 nM and 1.16 µM.
On the same counts, the results for `C[C@H]1C(=O)C(C#N)=C[C@@]2(C)c3c(c(-c4ccccc4)nn3Cc3ccccc3)CC[C@H]12` [T5] are 119 nM, 136 nM and 0.587 µM.
On the same counts, the results for `C[C@H]1C(=O)C(C#N)=C[C@@]2(C)c3nn(C4CCOCC4)c(-c4ccccc4)c3CC[C@H]12` [T28] are 136 nM, 90 nM and 0.719 µM.
On to `C[C@H]1C(=O)C(C#N)=C[C@@]2(C)c3c(c(NC4CCC4)nn3-c3ccc(-c4ccccc4)cc3)CC[C@H]12` [T78], for which the results for the IC50 in assay [1] and in assay [2] were 48 nM and 62 nM, respectively. In addition, the EC (2-fold) in assay [3] came out at 0.534 µM.
For `C[C@H]1C(=O)C(C#N)=C[C@@]2(C)c3c(c(-c4cccc(F)c4)nn3-c3ccnc4ccccc34)CC[C@H]12` [T104], the values for the IC50 in assay [1] and in assay [2] were 62 nM and 208 nM, respectively. In addition, the EC (2-fold) in assay [3] was found to be 0.638 µM.
On the same counts, the results for `C[C@H]1C(=O)C(C#N)=C[C@@]2(C)c3c(c(-c4ccccc4)nn3-c3ccc(-c4cccc(CO)c4)cc3)CC[C@H]12` [T45] are 22 nM, 44 nM and 0.147 µM.
On the same counts, the results for `Cc1noc(-c2ccc(-n3nc(-c4cccnc4)c4c3[C@]3(C)C=C(C#N)C(=O)[C@H](C)[C@H]3CC4)cc2)n1` [T107] are 87 nM, 112 nM and 0.505 µM.
On the same counts, the results for `C[C@H]1C(=O)C(C#N)=C[C@@]2(C)c3c(c(-c4ccccc4F)nn3-c3ccc(-c4ccncc4)cc3)CC[C@H]12` [T84] are 33 nM, 23 nM and 0.121 µM.
As to `Cc1noc(-c2ccc(-n3nc(-c4ccc(F)cc4)c4c3[C@]3(C)C=C(C#N)C(=O)[C@H](C)[C@H]3CC4)cc2)n1` [T106], the IC50 in assay [1] was determined as 27 nM; in assay [2] it was 83 nM. In addition, the EC (2-fold) in assay [3] stood at 0.29 µM.
On the same counts, the results for `C[C@H]1C(=O)C(C#N)=C[C@@]2(C)c3nn(-c4cccc(-c5ccccc5)c4)c(-c4cccc(F)c4)c3CC[C@H]12` [T126] are 21 nM, 253 nM and 1.12 µM.
Turning to `Cc1noc(-c2nn(-c3ccc(-c4ccccc4)cc3)c3c2CC[C@@H]2[C@@H](C)C(=O)C(C#N)=C[C@@]32C)n1` [T96], the half-maximal inhibitory concentration (IC50) is 32 nM in assay [1] and 59 nM in assay [2]. Moreover, the EC (2-fold) in assay [3] came out at 0.258 µM.
On the same counts, the results for `Cc1nc(-c2ccc(-n3nc(-c4ccccc4F)c4c3[C@]3(C)C=C(C#N)C(=O)[C@H](C)[C@H]3CC4)cc2)no1` [T94] are 24 nM, 65 nM and 0.146 µM.
On the same counts, the results for `C[C@H]1C(=O)C(C#N)=C[C@@]2(C)c3c(c(N(C)C4CCC4)nn3-c3ccc(-c4ccccc4)cc3)CC[C@H]12` [T80] are 17 nM, 71 nM and 0.347 µM.
On the same counts, the results for `C[C@H]1C(=O)C(C#N)=C[C@@]2(C)c3c(c(-c4ccncn4)nn3-c3ccc(-c4cncc(F)c4)cc3)CC[C@H]12` [T49] are 52 nM, 59 nM and 0.392 µM.
With `C[C@H]1C(=O)C(C#N)=C[C@@]2(C)c3nc(-c4ccc(-c5ccccc5)cc4)n(-c4cccc(F)c4)c3CC[C@H]12` [T127], the IC50 was determined as 62 nM in assay [1] and 267 nM in assay [2]. Also, the EC (2-fold) in assay [3] is 1.12 µM.
On the same counts, the results for `C[C@H]1C(=O)C(C#N)=C[C@@]2(C)c3nc(-c4cccc5ncccc45)n(-c4cccc(F)c4)c3CC[C@H]12` [T136] are 144 nM, 189 nM and 0.753 µM.
On the same counts, the results for `Cc1ccccc1-c1ccc(-n2nc(-c3ccccc3)c3c2[C@]2(C)C=C(C#N)C(=O)[C@H](C)[C@H]2CC3)cc1` [T44] are 41 nM, 83 nM and 0.242 µM.
On the same counts, the results for `C[C@H]1C(=O)C(C#N)=C[C@@]2(C)c3c(c(-c4ccc(F)cc4)nn3-c3ccc(-c4ncon4)cc3)CC[C@H]12` [T183] are 68 nM, 113 nM and 0.526 µM.
On to `CC(C)c1ccc(-c2nc3c(n2-c2cccc(F)c2)CC[C@@H]2[C@@H](C)C(=O)C(C#N)=C[C@@]32C)cc1` [T129], for which the IC50 came to 73 nM in assay [1] and 214 nM in assay [2]. In assay [3], the EC (2-fold) was 1.29 µM.
On the same counts, the results for `C[C@H]1C(=O)C(C#N)=C[C@@]2(C)c3c(c(-c4ccccc4)nn3-c3ccccc3F)CC[C@H]12` [T9] are 127 nM, 63 nM and 0.122 µM.
On the same counts, the results for `C[C@H]1C(=O)C(C#N)=C[C@@]2(C)c3nc(-c4ccc(-c5ccccc5)cc4)n(-c4cccnc4)c3CC[C@H]12` [T152] are 131 nM, 188 nM and 1.16 µM.
On the same counts, the results for `C[C@H]1C(=O)C(C#N)=C[C@@]2(C)c3nc(-c4cccc(-c5ccccc5)c4)n(-c4cccc(F)c4)c3CC[C@H]12` [T128] are 117 nM, 158 nM and 0.818 µM.
With `C[C@H]1C(=O)C(C#N)=C[C@@]2(C)c3c(c(-c4ccncn4)nn3-c3ccc(-c4ccc(F)cc4)cn3)CC[C@H]12` [T56], the values for the concentration for half-maximal inhibition (IC50) in assay [1] and in assay [2] were 55 nM and 99 nM, respectively. For the same compound, the EC (2-fold) in assay [3] is 0.433 µM.
On the same counts, the results for `Cc1cc(-c2ccc(-n3nc(-c4ccc(F)cc4)c4c3[C@]3(C)C=C(C#N)C(=O)[C@H](C)[C@H]3CC4)cc2)cnn1` [T177] are 9 nM, 52 nM and 0.271 µM.
On the same counts, the results for `Cc1cnnc(-c2ccc(-n3nc(-c4ccc(F)cc4)c4c3[C@]3(C)C=C(C#N)C(=O)[C@H](C)[C@H]3CC4)cc2)c1` [T179] are 45 nM, 37 nM and 0.232 µM.
On the same counts, the results for `Cc1nc2c(n1-c1cccc(F)c1)CC[C@@H]1[C@@H](C)C(=O)C(C#N)=C[C@@]21C` [T133] are 247 nM, 225 nM and 0.767 µM.
As to `Cc1cc(-c2ccc(-n3nc(-c4nc(C)no4)c4c3[C@]3(C)C=C(C#N)C(=O)[C@H](C)[C@H]3CC4)cc2)cnn1` [T108], the results for the IC50 in assay [1] and in assay [2] were 223 nM and 154 nM, respectively. Besides, the EC (2-fold) in assay [3] is 1.25 µM.
Regarding `C[C@H]1C(=O)C(C#N)=C[C@@]2(C)c3nc(-c4cccc(-c5cnn(C)c5)c4)n(-c4cccc(F)c4)c3CC[C@H]12` [T149], the results for the IC50 in assay [1] and in assay [2] were 129 nM and 159 nM, respectively. Also, the EC (2-fold) in assay [3] was found to be 0.687 µM.
On the same counts, the results for `Cc1ccc(-n2nc(-c3ccccc3)c3c2[C@]2(C)C=C(C#N)C(=O)[C@H](C)[C@H]2CC3)cc1` [T12] are 76 nM, 55 nM and 0.135 µM.
On the same counts, the results for `C[C@H]1C(=O)C(C#N)=C[C@@]2(C)c3c(c(-c4ccccc4)nn3-c3ccc(-c4ccccc4)cc3)CC[C@H]12` [T21] are 19 nM, 80 nM and 0.161 µM.
On the same counts, the results for `C[C@H]1C(=O)C(C#N)=C[C@@]2(C)c3nc(-c4ccnc(N5CCOCC5)c4)n(-c4cnn(C)c4)c3CC[C@H]12` [T160] are 468 nM, 562 nM and greater than 2 µM.
Take `COc1ccc(-n2nc(-c3ccccc3)c3c2[C@]2(C)C=C(C#N)C(=O)[C@H](C)[C@H]2CC3)cc1` [T14]: the figures for the IC50 in assay [1] and in assay [2] were 57 nM and 60 nM, respectively. Moreover, the EC (2-fold) in assay [3] worked out at 0.147 µM.
On the same counts, the results for `Cc1noc(-c2ccc(-n3nc(-c4ccccc4F)c4c3[C@]3(C)C=C(C#N)C(=O)[C@H](C)[C@H]3CC4)cc2)n1` [T95] are 40 nM, 62 nM and 0.185 µM.
On the same counts, the results for `C[C@H]1C(=O)C(C#N)=C[C@@]2(C)c3c(c(-c4ccccc4)nn3-c3ccnc4ccccc34)CC[C@H]12` [T8] are 73 nM, 81 nM and 0.426 µM.

The term IC50 denotes the concentration needed to halve the response being measured.
